Like-named read-outs stand apart in the source and are kept apart here.
How the values were obtained:
F508del/F508del CFTR = biological target: T1, F508del/F508del CFTR (Homo sapiens, UniProt P13569, DEL508-508); experiment: Trans-Epithelial Current Clamp (TECC) assay using primary human bronchial epithelial cells; assay type: cell-based; conditions: for Emax (% Dual): maximum percent activity relative to positive control (co-corrector 0.15 μM + potentiator 0.45 μM = 100%), primary hBE cells F508del/F508del; for EC50: primary hBE cells homozygous F508del/F508del, test C2 corrector with co-corrector and potentiator, 18-24 hours at 37° C., equivalent CFTR current (IEQ)/AUC
T1 construct: cells isolated from CF patients with the homozygous mutation; endogenous in cells; host or cells: primary human bronchial epithelial (hBE) cells from CF patients homozygous for F508del
T1 sequence (P13569 with tags, fused parts or gaps DEL508-508): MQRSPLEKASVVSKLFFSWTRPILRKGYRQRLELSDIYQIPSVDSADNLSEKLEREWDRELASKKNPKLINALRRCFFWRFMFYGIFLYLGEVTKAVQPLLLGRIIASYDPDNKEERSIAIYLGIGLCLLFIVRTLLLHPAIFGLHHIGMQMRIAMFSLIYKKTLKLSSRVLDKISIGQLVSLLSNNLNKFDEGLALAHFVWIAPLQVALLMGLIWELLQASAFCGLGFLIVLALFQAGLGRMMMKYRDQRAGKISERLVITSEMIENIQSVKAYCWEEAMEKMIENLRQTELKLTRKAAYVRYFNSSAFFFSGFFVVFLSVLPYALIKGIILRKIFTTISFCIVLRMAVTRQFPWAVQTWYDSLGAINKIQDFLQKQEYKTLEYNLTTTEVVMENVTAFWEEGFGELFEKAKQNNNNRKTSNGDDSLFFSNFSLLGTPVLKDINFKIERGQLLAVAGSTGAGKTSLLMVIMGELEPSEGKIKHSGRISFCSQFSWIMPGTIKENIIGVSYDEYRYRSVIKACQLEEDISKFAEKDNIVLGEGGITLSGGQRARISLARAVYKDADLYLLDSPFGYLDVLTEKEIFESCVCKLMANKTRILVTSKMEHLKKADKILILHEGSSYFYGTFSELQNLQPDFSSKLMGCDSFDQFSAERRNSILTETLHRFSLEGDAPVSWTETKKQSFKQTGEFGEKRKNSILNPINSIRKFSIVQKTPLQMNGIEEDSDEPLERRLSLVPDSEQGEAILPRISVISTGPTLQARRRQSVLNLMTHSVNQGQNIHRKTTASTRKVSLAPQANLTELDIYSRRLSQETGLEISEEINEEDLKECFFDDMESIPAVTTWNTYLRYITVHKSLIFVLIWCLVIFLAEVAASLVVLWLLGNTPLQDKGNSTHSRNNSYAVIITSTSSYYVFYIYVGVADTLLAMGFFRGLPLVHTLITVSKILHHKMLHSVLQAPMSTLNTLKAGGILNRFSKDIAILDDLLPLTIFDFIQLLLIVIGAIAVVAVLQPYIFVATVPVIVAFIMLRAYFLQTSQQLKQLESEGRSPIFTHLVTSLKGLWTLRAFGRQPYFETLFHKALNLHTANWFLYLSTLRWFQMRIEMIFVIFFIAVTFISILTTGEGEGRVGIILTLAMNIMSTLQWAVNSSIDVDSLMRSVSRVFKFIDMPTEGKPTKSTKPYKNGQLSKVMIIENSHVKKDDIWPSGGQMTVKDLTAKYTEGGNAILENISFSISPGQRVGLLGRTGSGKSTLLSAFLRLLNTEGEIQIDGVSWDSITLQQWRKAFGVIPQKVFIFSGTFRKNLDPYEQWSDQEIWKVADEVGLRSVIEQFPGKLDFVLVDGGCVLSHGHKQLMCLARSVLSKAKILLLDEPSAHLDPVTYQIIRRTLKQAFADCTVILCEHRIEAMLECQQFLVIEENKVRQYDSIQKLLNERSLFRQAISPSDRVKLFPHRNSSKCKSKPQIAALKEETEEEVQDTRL
Method in brief: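 F508del/F508del primary hBE cells grown 35 days at air-liquid interface were treated basolaterally with C2 correctors plus fixed co-corrector and potentiator for 18-24 h at 37° C. TECC-24 current clamp at 36.5° C in HEPES-buffered F-12 Coon's, pH 7.4; equivalent current IEQ=VT/RT, plus AUC between forskolin peak and bumetanide.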

F508delCFTR = biological target: T2, F508delCFTR (Homo sapiens, UniProt P13569, DEL508-508); experiment: Cell Surface Expression-Horse Radish Peroxidase (CSE-HRP) assay in CFBE41o-F508delCFTR-HRP cells; assay type: cell-based; conditions: for EC50: CFBE41o-F508delCFTR-HRP cells, 18-24 hours at 33° C., luminescence; for Maximum % activity (without co-corrector) / Maximum % activity (with co-corrector): normalized to on-plate positive control corrector (2 μM)
T2 construct: expressed in transfected cells; host or cells: CFBE41o- human lung-derived epithelial cell line, doxycycline-inducible expression
T2 sequence (P13569 with tags, fused parts or gaps DEL508-508): as above
Method in brief: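 CFBE41o- cells expressing F508delCFTR with HRP in the fourth exofacial loop were doxycycline-induced (0.5 μg/mL) for 68–72 h, then exposed to correctors for 18–24 h at 33 °C, with or without 2 μM co-corrector. Surface HRP was read by luminol luminescence, and % activity was normalized to the on-plate positive control; EC50 came from a variable-slope sigmoidal fit (8 points, 3-fold dilution, 20 or 30 μM top).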

[1] = with co-corrector (2 μM), read-out: EC50 (with co-corrector)
[2] = without co-corrector, read-out: EC50 (without co-corrector)

Row | SMILES | Emax (% Dual) (F508del/F508del CFTR) | EC50 (F508del/F508del CFTR) | EC50 (F508delCFTR; [1]) | EC50 (F508delCFTR; [2]) | Maximum % activity (without co-corrector) (F508delCFTR; without co-corrector) | Maximum % activity (with co-corrector) (F508delCFTR; with co-corrector (2 μM)) | Maximum % activity (without co-corrector) (F508delCFTR; without co-corrector, 2 µM)
1 | CCOc1ncccc1[C@@H]1C[C@]1(C(=O)NS(=O)(=O)c1cccc2nc(C)ccc12)c1cc(C)ccc1OC (single isomer, unassigned) [Example 73] | 230 % Dual | 30.6 nM | 785 nM | 1440 nM | 539% |  | 
2 | COc1cncc([C@@H]2C[C@]2(C(=O)NS(=O)(=O)c2cccc3nc(C)ccc23)c2cc(C)ccc2OC)n1 (single isomer, unassigned) [Example 74] | 222 % Dual | 222 nM | 743 nM | 1290 nM | 188% | 545% | 
3 | COc1ccc(C)cc1[C@]1(C(=O)NS(=O)(=O)c2cccc3nc(C)ccc23)C[C@@H]1c1ccc(C)nc1 [Example 11, (1S,2R)-1-(2-methoxy-5-methylphenyl)-2-(6-methylpyridin-3-yl)-N-(2-methylquinoline-5-sulfonyl)cyclopropane-1-carboxamide] | 214 % Dual | 49 nM | 2820 nM | 4600 nM | 679% |  | 
4 | COc1ccc(C)cc1[C@]1(C(=O)NS(=O)(=O)c2cccc3nc(C)ccc23)C[C@@H]1c1ccc(C(C)C)nc1 [Example 67, (1S,2R)-1-(2-methoxy-5-methylphenyl)-N-(2-methylquinoline-5-sulfonyl)-2-[6-(propan-2-yl)pyridin-3-yl]cyclopropane-1-carboxamide] | 174 % Dual | 20.7 nM | 1610 nM | 3320 nM | 492% | 989% | 
5 | COc1ccc(C)cc1[C@]1(C(=O)NS(=O)(=O)c2cccc3nc(C)ccc23)C[C@@H]1c1cnc(OC)c(OC)n1 [Example 80, (1S,2S)-2-(5,6-dimethoxypyrazin-2-yl)-1-(2-methoxy-5-methylphenyl)-N-(2-methylquinoline-5-sulfonyl)cyclopropane-1-carboxamide] | 275 % Dual | 15.8 nM | 461 nM | 1320 nM | 925% |  | 
6 | COc1ccc(C)cc1[C@]1(C(=O)NS(=O)(=O)c2cccc3nc(C)ccc23)C[C@@H]1c1ccc(C(C)C)nn1 [Example 69, (1S,2S)-1-(2-methoxy-5-methylphenyl)-N-(2-methylquinoline-5-sulfonyl)-2-[6-(propan-2-yl)pyridazin-3-yl]cyclopropane-1-carboxamide] | 111 % Dual | > 300 nM | 3430 nM | 6010 nM | 170% | 495% | 
7 | COc1cccc([C@@H]2C[C@]2(C(=O)NS(=O)(=O)c2cccc3nc(C)ccc23)c2cc(C)ccc2OC)n1 [Example 44, (1R,2R)-1-(2-methoxy-5-methylphenyl)-2-(6-methoxypyridin-2-yl)-N-(2-methylquinoline-5-sulfonyl)cyclopropane-1-carboxamide] | 193 % Dual | 16.6 nM | 865 nM | 1410 nM | 384% | 982% | 
8 | COc1ccc(C)cc1[C@]1(C(=O)NS(=O)(=O)c2cccc3nc(C)ccc23)C[C@@H]1c1ccc(C(C)C)nc1OC (single isomer, unassigned) [Example 88] | 275 % Dual | 12.6 nM | 534 nM | 1180 nM | 910% |  | 
9 | COc1ccc([C@H]2C[C@@]2(C(=O)NS(=O)(=O)c2cccc3nc(C)ccc23)c2cc(C)ccc2OC)c(C)n1 [Example 72, (1S,2R)-1-(2-methoxy-5-methylphenyl)-2-(6-methoxy-2-methylpyridin-3-yl)-N-(2-methylquinoline-5-sulfonyl)cyclopropane-1-carboxamide] | 359 % Dual | 13.6 nM | 1540 nM | 3330 nM | 651% |  | 
10 | COc1ccc(C)cc1[C@]1(C(=O)NS(=O)(=O)c2cccc3nc(C)ccc23)C[C@@H]1c1ccc(N(C)C)nc1 [Example 68, (1S,2R)-2-[6-(dimethylamino)pyridin-3-yl]-1-(2-methoxy-5-methylphenyl)-N-(2-methylquinoline-5-sulfonyl)cyclopropane-1-carboxamide] | 217 % Dual | 21.1 nM | 1120 nM | 2760 nM | 657% |  | 
11 | COc1cncc([C@@H]2C[C@]2(C(=O)NS(=O)(=O)c2cccc3nc(C)ccc23)c2cc(C)ccc2OC)c1 (racemic) [Example 41, rac-(1r,2s)-1-(2-methoxy-5-methylphenyl)-2-(5-methoxypyridin-3-yl)-N-(2-methylquinoline-5-sulfonyl)cyclopropane-1-carboxamide] | 244 % Dual | 110 nM | 1770 nM | 2980 nM | 497% |  | 

Now those with a lower EC50 (F508del/F508del CFTR), led by results:

Row | Emax (% Dual) (F508del/F508del CFTR) | EC50 (F508del/F508del CFTR) | EC50 (F508delCFTR; [1]) | EC50 (F508delCFTR; [2]) | Maximum % activity (without co-corrector) (F508delCFTR; without co-corrector) | Maximum % activity (with co-corrector) (F508delCFTR; with co-corrector (2 μM)) | Maximum % activity (without co-corrector) (F508delCFTR; without co-corrector, 2 µM) | SMILES
12 | 215 % Dual | 9.6 nM | 588 nM | 1010 nM |  |  |  | COc1ccc(C)cc1[C@@]1(C(=O)NS(=O)(=O)c2cccc3nc(C)ccc23)C[C@H]1c1ccc(C(F)(F)F)cc1 (single isomer, unassigned) [Example 19]
13 | 289 % Dual | 0.4 nM | 327 nM | 1660 nM |  |  |  | COc1ccc(C)cc1[C@]1(C(=O)NS(=O)(=O)c2cccc3nc(C)ccc23)C[C@@H]1c1cccc(C(F)F)n1 [Example 77, (1S,2S)-2-[6-(difluoromethyl)pyridin-2-yl]-1-(2-methoxy-5-methylphenyl)-N-(2-methylquinoline-5-sulfonyl)cyclopropane-1-carboxamide]
14 | 213 % Dual | 2 nM | 506 nM | 1090 nM |  |  |  | COc1ccc(C)cc1[C@@]1(C(=O)NS(=O)(=O)c2cccc3nc(C)ccc23)C[C@H]1c1cccc(F)c1 (single isomer, unassigned) [Example 21]
15 | 266 % Dual | 1.8 nM | 587 nM | 714 nM | 800% |  |  | COc1ccc(C)cc1[C@]1(C(=O)NS(=O)(=O)c2cccc3nc(C)ccc23)C[C@@H]1c1cnc(OC)c(C)c1 [Example 103, (1S,2R)-1-(2-methoxy-5-methylphenyl)-2-(6-methoxy-5-methylpyridin-3-yl)-N-(2-methylquinoline-5-sulfonyl)cyclopropane-1-carboxamide]
16 | 413 % Dual | 6.7 nM | 1030 nM | 2140 nM |  |  |  | COc1ccc(C)cc1[C@]1(C(=O)NS(=O)(=O)c2cccc3nc(C)ccc23)C[C@@H]1c1cccc(N(C)C)n1 [Example 60, (1S,2S)-2-[6-(dimethylamino)pyridin-2-yl]-1-(2-methoxy-5-methylphenyl)-N-(2-methylquinoline-5-sulfonyl)cyclopropane-1-carboxamide]
17 | 269 % Dual | 2.4 nM | 989 nM | 2140 nM |  |  |  | COc1ccc(C)cc1[C@]1(C(=O)NS(=O)(=O)c2cccc3nc(C)ccc23)C[C@@H]1c1cnc(OC)c(F)c1 [Example 76, (1S,2R)-2-(5-fluoro-6-methoxypyridin-3-yl)-1-(2-methoxy-5-methylphenyl)-N-(2-methylquinoline-5-sulfonyl)cyclopropane-1-carboxamide]
18 | 429 % Dual | 1.4 nM | 504 nM | 844 nM |  |  |  | COc1ccc(C)cc1[C@@]1(C(=O)NS(=O)(=O)c2cccc3nc(C)ccc23)C[C@H]1c1cccc(F)c1 (racemic) [Example 8, rac-(1r,2s)-2-(3-fluorophenyl)-1-(2-methoxy-5-methylphenyl)-N-(2-methylquinoline-5-sulfonyl)cyclopropane-1-carboxamide]
19 | 308 % Dual | 8.4 nM | 393 nM | 328 nM |  |  | 784% | COc1ccc([C@@H]2C[C@]2(C(=O)NS(=O)(=O)c2cccc3nc(C)ccc23)c2cc(C)ccc2OC)cc1 (single isomer, unassigned) [Example 16]
20 | 389 % Dual | 5 nM | 1430 nM | 2840 nM |  |  |  | COc1ccc(C)cc1[C@@]1(C(=O)NS(=O)(=O)c2cccc3nc(C)ccc23)C[C@H]1c1ccccc1 (racemic) [Example 1, rac-(1r,2s)-1-(2-methoxy-5-methylphenyl)-N-(2-methylquinoline-5-sulfonyl)-2-phenylcyclopropane-1-carboxamide]
